# Source: patent US20060099648A1, “Compositions and methods for epitope mapping” (priority 2000, published 2006)
# B1: Peptide# 74 (peptide)
# peptide: ITCEC
# B2: Peptide# 72 (peptide)
# peptide: KKITC
# B3: Peptide# 75 (peptide)
# peptide: TCECT
# B4: Peptide# 85 (peptide)
# peptide: PLFDG
# B5: Peptide# 89 (peptide)
# peptide: GIFCS
# B6: Peptide# 8 (peptide)
# peptide: VKKQC
# B7: Peptide# 84 (peptide)
# peptide: YPLFD
# B8: Peptide# 68 (peptide)
# peptide: GSNGK
# B9: Peptide# 77 (peptide)
# peptide: ECTKP
# B10: Peptide# 81 (peptide)
# peptide: PDSYP
# B11: Peptide# 64 (peptide)
# peptide: EEDSG
# B12: Peptide# 70 (peptide)
# peptide: NGKKI
# B13: Peptide# 80 (peptide)
# peptide: KPDSY
# B14: Peptide# 7 (peptide)
# peptide: CVKKQ
# B15: Peptide# 69 (peptide)
# peptide: SNGKK
# B16: Peptide# 88 (peptide)
# peptide: DGIFC
# B17: Peptide# 79 (peptide)
# peptide: TKPDS
# B18: Peptide# 86 (peptide)
# peptide: LFDGI
# B19: Peptide# 66 (peptide)
# peptide: DSGSN
# B20: Peptide# 78 (peptide)
# peptide: CTKPD
# B21: Peptide# 82 (peptide)
# peptide: DSYPL
# B22: Peptide# 76 (peptide)
# peptide: CECTK
# B23: Peptide# 71 (peptide)
# peptide: GKKIT
# B24: Peptide# 9 (peptide)
# peptide: KKQCP
# B25: Peptide# 87 (peptide)
# peptide: FDGIF
# B26: Peptide# 67 (peptide)
# peptide: SGSNG
# B27: Peptide# 73 (peptide)
# peptide: KITCE
# B28: Peptide# 83 (peptide)
# peptide: SYPLF
# B29: Peptide# 65 (peptide)
# peptide: EDSGS
# System: MSP1-19
# Assay: Epitope mapping: displacement of human IgG from peptide pins on exposure to MSP1-19
# Set-up: species or system Plasmodium falciparum
# Settings: change in human IgG binding to peptide pin after 1 h exposure to 50 mg/mL MSP1-19 at room temperature; normalised to no-peptide pins and control peptide GLAQG
# Experimental: A natural human IgG antibody library was tested for its ability to bind to peptides associated with the 19 kDa C-terminal region of merozoite surface protein 1 (MSP1-19) from Plasmodium falciparum (Kaslow et al., Mol. Biochem. Parasitology 63:283-289 (1994)). The 89 amino acid sequence from MSP1-19 was used for the epitope mapping experiment (see Table 1).
# Briefly, a library of pentamer peptides was synthesized on polypropylene pins following the procedures described by Geysen et al., Proc. Natl. Acad. Sci. USA 81:3998-4002 (1984). These peptides represented all five-amino-acid stretches of MSP1-19 offset by one residue (Table 1). Peptide pins were precoated in phosphate buffered saline (PBS), pH 7.2, containing 2% BSA and 0.1% TWEEN 20 for one hour at room temperature. Five successive washes of the pins were carried out for five minutes each with agitation in PBS. Human IgG (Calbiochem; San Diego Calif.) was complexed to the peptides by incubating 0.1 mg/mL IgG in PBS at 4° C. for 30 hours. Unbound antibody was removed by washing as described above in 10 mM TRIS, pH 7.4 buffer containing 150 mM NaCl (TBS) using new microtiter plates for transferring the pins for each of the five washings. Anti-human IgG (goat) alkaline phosphatase conjugate was diluted to 0.1 mg specific antibody/mL in TBS and incubated with the peptide/antibody complex for one hour at room temperature before washing five times with TBS, as described above. The pins were then incubated in assay solution containing 10 mM TRIS, pH 8.0, 150 mM NaCl, 0.5 mM MgCl2, and 0.1 mM 4-methylumbelliferyl-phosphate for 30 minutes at room temperature in the dark. Following incubation, the fluorescence intensity of the assay solution was measured in a Spectromax Gemini plate reader (Molecular Devices; Sunnyvale Calif.)(ex 358 nm/em 450 nm).
# The peptide/antibody complexes on the pins were washed five times in TBS, as described above, and incubated with 50 mg/mL MSP1-19 diluted in TBS for one hour at room temperature. The pins were washed in TBS as before and incubated in assay mixture for 30 minutes in the dark prior to measurement of the fluorescent intensity. Change in binding was determined using the equation: ΔF=(FMSP−Fb,MSP)/(F100,MSP−Fb,MSP)−(F0−Fb,0)/(F100,0−Fb,0) where FMSP and F0 are the fluorescence intensities of peptide containing pins after and before exposure to MSP1-19, respectively. Fb,MSP and Fb,0 are the fluorescence intensities of pins with no peptide after and before exposure to MSP1-19, respectively. F100,MSP and F100,0 are the fluorescence intensities of pins containing a control peptide, GLAQG (SEQ ID NO:90), after and prior to exposure to MSP1-19.
row,Molecule,ΔF (%)
1,CLLNY [Peptide 30],<5
2,EECKC [Peptide 26],<5
3,NISQH [Peptide 1],<5
4,DSYPL [Peptide 82],9
5,GIFCS [Peptide 89],11
6,TCNEN [Peptide 48],<5
7,CPQNS [Peptide 12],<5
8,EREEC [Peptide 24],<5
9,DSGSN [Peptide 66],9
10,CDADA [Peptide 56],<5
11,ECKCL [Peptide 27],<5
12,RHLDE [Peptide 20],<5
13,GSNGK [Peptide 68],<5
14,ECTKP [Peptide 77],13
15,NENNG [Peptide 50],5
16,FRHLD [Peptide 19],<5
17,LFDGI [Peptide 86],11
18,SGCFR [Peptide 16],<5
19,QEGDK [Peptide 36],<5
20,ISQHQ [Peptide 2],<5
21,EGDKC [Peptide 37],<5
22,KCVEN [Peptide 40],<5

row,Molecule,ΔF (%)
1,PQNSG [Peptide 13],<5
2,DKCVE [Peptide 39],<5
3,GGCDA [Peptide 54],<5
4,TCECT [Peptide 75],12
5,VKKQC [Peptide 8],<5
6,LDERE [Peptide 22],<5
7,EDSGS [Peptide 65],7
8,NSGCF [Peptide 15],<5
9,QCPQN [Peptide 11],<5
10,GCDAD [Peptide 55],7
11,NPTCN [Peptide 46],<5
12,CNENN [Peptide 49],16
13,PNPTC [Peptide 45],<5
14,LLNYK [Peptide 31],<5
15,PDSYP [Peptide 81],9
16,FDGIF [Peptide 87],9
17,KCTEE [Peptide 61],6
18,QNSGC [Peptide 14],<5
19,AKCTE [Peptide 60],5
20,YPLFD [Peptide 84],12
21,VENPN [Peptide 42],<5
22,CTKPD [Peptide 78],10

row,Molecule,ΔF (%)
1,QHQCV [Peptide 4],<5
2,ENPNP [Peptide 43],<5
3,KKQCP [Peptide 9],<5
4,LNYKQ [Peptide 32],<5
5,PLFDG [Peptide 85],16
6,GCFRH [Peptide 17],<5
7,SNGKK [Peptide 69],<5
8,SYPLF [Peptide 83],13
9,KITCE [Peptide 73],7
10,NPNPT [Peptide 44],<5
11,DGIFC [Peptide 88],7
12,ITCEC [Peptide 74],5
13,DEREE [Peptide 23],<5
14,TEEDS [Peptide 63],<5
15,EEDSG [Peptide 64],7
16,DAKCT [Peptide 59],<5
17,KKITC [Peptide 72],9
18,QCVKK [Peptide 6],<5
19,HLDER [Peptide 21],<5
20,TKPDS [Peptide 79],11
21,CECTK [Peptide 76],<5
22,NGGCD [Peptide 53],10

row,Molecule,ΔF (%)
1,KQCPQ [Peptide 10],<5
2,CFRHL [Peptide 18],<5
3,GDKCV [Peptide 38],<5
4,CVKKQ [Peptide 7],<5
5,REECK [Peptide 25],<5
6,NGKKI [Peptide 70],12
7,YKQEG [Peptide 34],<5
8,KQEGD [Peptide 35],<5
9,KPDSY [Peptide 80],11
10,NNGGC [Peptide 52],6
11,PTCNE [Peptide 47],<5
12,CVENP [Peptide 41],<5
13,CKCLL [Peptide 28],<5
14,GKKIT [Peptide 71],6
15,ENNGG [Peptide 51],<5
16,HQCVK [Peptide 5],<5
17,SGSNG [Peptide 67],<5
18,CTEED [Peptide 62],<5
19,DADAK [Peptide 57],<5

# Molecular target: Human IgG (Calbiochem; San Diego Calif.) (human)
# Assay: IgG displaced from peptide pin; competitor MSP1-19
# Settings: not given
row,Molecule,ΔF (%)
1,B1,5
2,B2,9
3,B3,12
4,B4,16
5,B5,11
6,B6,< 5
7,B7,12
8,B8,< 5
9,B9,13
10,B10,9
11,B11,7
12,B12,12
13,B13,11
14,B14,< 5
15,B15,< 5
16,B16,7
17,B17,11
18,B18,11
19,B19,9
20,B20,10
21,B21,9
22,B22,< 5
23,B23,6
24,B24,< 5
25,B25,9
26,B26,< 5
27,B27,7
28,B28,13
29,B29,7
